Test results published in patent publication US20230414472A1, “COSMETIC COMPOSITION INCLUDING GARLIC EXTRACT, BLACK TEA EXTRACT, AND GUAVA EXTRACT” (COSMAX INC., priority 2022, published 2023).

Columns and labels:
[1] = target: T1, SNARE complex (SNAP-25, syntaxin 1a, VAMP-2) (Homo sapiens, UniProt P60880+P63027+Q16623); assay: Inhibitory effect on membrane fusion (SNARE liposome fusion, fluorescence intensity); assay type: biochemical; conditions: 100 μM myricetin; FIG. 1
T1 construct: GST (inferred from purification on glutathione agarose beads); made in house; host or cells: E. coli
T1 sequence (P60880 whole entry, the tested form may be a part): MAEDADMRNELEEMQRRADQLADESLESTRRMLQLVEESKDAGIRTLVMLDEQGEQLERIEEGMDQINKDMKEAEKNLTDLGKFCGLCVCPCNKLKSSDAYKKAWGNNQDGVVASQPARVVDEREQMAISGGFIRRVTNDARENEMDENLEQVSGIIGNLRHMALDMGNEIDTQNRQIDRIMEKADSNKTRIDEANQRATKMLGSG
T1 sequence (Q16623 whole entry, the tested form may be a part): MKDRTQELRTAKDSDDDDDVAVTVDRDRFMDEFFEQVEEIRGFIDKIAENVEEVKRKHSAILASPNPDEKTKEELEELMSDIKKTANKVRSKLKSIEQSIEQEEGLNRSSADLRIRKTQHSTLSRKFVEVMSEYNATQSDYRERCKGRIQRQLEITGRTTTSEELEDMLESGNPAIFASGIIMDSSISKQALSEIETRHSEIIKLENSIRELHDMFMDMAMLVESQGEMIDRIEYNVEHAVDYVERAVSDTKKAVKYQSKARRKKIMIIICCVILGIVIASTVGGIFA
T1 sequence (P63027 whole entry, the tested form may be a part): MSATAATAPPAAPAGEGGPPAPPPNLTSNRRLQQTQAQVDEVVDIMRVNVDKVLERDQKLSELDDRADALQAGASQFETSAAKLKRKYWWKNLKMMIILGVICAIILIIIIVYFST
Procedure: The inhibitory effect of the composition according to an embodiment on the membrane fusion was confirmed. Also, since myricetin was predicted as an active ingredient, the inhibitory effect of 100 μM of myricetin (Sigma-Aldrich) on the membrane fusion was also confirmed.
First, a soluble nethylmaleimide-sensitive factor attachment protein (SNAP) receptor protein was overexpressed in transformed E. coli, and then the expressed protein was selectively purified and obtained by using glutathione agarose beads. Then, […] (POPC, 62 mol %), 1,2-dioleoyl-sn-glycero-3-phosphatidylserine (DOPS, 35 mol %), 1,2-dioleoyl-sn-glycero-3-phosphoserine-N-(7-nitro-2-1,3-benzoxadiazol-4-yl) (NBD-PS, 1.5 mol %), and a fluorescent material, rhodamine (rhodamin-PE, 1.5 mol %) were mixed to prepare a 10 mM fluorescent substance-labeled liposome (v-vesicle). Meanwhile, DOPS and POPC were mixed to a molar concentration of 35:65 to prepare a 50 mM liposome (t-vesicle) that is not labeled with a fluorescent substance. Then, purified synaptosomal-associated protein, SNAP-25, and syntaxin 1a were mixed at a molar concentration of 1:1 and allowed for a reaction for 1 hour at room temperature, followed by mixing with the liposome that is not labeled with a fluorescent substance at a molar ratio of 100:1. […]
Then, the fluorescence intensity thereof was measured.

VAMP2 = VAMP2 level in human skin explant (fluorescence staining); assay type: cell-based; conditions: 10 μL sample at set concentrations, cultured 72 hours, FIG. 3
[2] = system: acetylcholine release in human skin tissue; assay: Acetylcholine release in human skin explant (choline/acetylcholine assay kit); assay type: cell-based; conditions: 10 μL sample every day for 3 days, FIG. 4

## O=c1c(O)c(-c2cc(O)c(O)c(O)c2)oc2cc(O)cc(O)c12 [myricetin]
[1]
  membrane fusion rate: most significantly reduced
VAMP2
  VAMP2 level in the skin tissue: significantly reduced
[2]
  amount of acetylcholine released in the skin tissue: significantly reduced
